{
  "source": "ChEMBL document CHEMBL4371009",
  "about": "“Polypharmacology by Design: A Medicinal Chemist's Perspective on Multitargeting Compounds” (J Med Chem, 2019)",
  "key": {"D(4) dopamine receptor": {"biological_target": "T1, D(4) dopamine receptor (Homo sapiens, UniProt P21917)", "T1 sequence (P21917 whole entry)": "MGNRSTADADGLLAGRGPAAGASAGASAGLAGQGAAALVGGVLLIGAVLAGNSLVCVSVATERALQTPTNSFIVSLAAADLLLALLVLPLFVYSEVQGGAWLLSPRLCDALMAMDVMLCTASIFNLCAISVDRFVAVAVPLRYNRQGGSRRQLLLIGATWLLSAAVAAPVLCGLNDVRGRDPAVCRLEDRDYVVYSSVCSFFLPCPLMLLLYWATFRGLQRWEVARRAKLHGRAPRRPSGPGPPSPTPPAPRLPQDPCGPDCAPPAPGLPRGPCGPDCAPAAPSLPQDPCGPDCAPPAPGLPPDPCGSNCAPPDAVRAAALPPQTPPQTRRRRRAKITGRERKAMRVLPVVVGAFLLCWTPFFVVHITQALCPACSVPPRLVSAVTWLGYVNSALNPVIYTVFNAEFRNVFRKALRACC", "assay": "Displacement of [3H]-N-methylspiperone from dopamine D4 receptor (unknown origin) expressed in HEK293 cell membranes"}, "[1]": {"biological_target": "T2, 5-hydroxytryptamine receptor 1A (Homo sapiens, UniProt P08908)", "T2 sequence (P08908 whole entry)": "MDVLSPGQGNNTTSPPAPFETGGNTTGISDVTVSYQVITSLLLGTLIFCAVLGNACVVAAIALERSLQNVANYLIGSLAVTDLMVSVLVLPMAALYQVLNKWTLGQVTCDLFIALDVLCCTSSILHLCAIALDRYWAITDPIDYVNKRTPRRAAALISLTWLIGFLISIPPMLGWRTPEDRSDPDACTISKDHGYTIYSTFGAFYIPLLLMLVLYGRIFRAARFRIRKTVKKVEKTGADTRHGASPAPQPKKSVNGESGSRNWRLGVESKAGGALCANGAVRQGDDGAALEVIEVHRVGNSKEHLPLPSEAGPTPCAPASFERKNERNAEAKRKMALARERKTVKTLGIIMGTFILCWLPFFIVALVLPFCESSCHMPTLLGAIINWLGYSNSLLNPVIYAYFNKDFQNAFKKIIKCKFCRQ", "assay": "Displacement of [3H]-Way100635 from 5HT1A (unknown origin) expressed in CHO cell membranes"}, "D(3) dopamine receptor": {"biological_target": "D(3) dopamine receptor (Homo sapiens, UniProt P35462)", "sequence (P35462 whole entry)": "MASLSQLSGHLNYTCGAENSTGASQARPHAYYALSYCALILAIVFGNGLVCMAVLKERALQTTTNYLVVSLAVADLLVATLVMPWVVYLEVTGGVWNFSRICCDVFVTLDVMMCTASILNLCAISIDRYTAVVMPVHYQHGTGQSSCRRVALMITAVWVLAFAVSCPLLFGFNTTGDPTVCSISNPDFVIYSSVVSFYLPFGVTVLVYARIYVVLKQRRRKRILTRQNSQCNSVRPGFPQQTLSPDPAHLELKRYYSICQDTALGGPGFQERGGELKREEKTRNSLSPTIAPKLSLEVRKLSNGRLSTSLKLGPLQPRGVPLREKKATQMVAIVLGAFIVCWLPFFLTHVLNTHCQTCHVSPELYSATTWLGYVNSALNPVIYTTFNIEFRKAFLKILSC", "assay": "Displacement of [3H]-N-methylspiperone from dopamine D3 receptor (unknown origin) expressed in HEK293 cell membranes"}},
  "data": [
    {"smiles": "COc1cc2c(cc1OC)C(=O)N(CCCCN1CCN(c3ccccn3)CC1)CCC2", "values": [
      {"measurement": "Ki", "setting": "D(4) dopamine receptor", "value": 6.5, "unit": "nM"},
      {"measurement": "Ki", "setting": "[1]", "value": 1.2, "unit": "nM"},
      {"measurement": "Ki", "setting": "D(3) dopamine receptor", "value": 3, "unit": "nM"}
    ]}
  ]
}
